“Also recorded” adds a separate entry of the source.
Columns and labels:
B cell = B cell growth inhibition; format: cell-based
IL-2 production = assay: Co-stimulation of IL-2 production; format: cell-based
[1] = test system: LC3-II, Bim, PARP, MDM2, XIAP, cIAP, p-p70S6K; assay: Immunoblotting/qPCR of autophagy and apoptosis proteins in MM cells; format: cell-based
Method: (§1) MM cells were harvested and lysed using RIPA-lysis buffer (Boston Bioproducts, Ashland, Mass.) containing 5 mM EDTA, 5 mM NaF, 2 mM Na3VO4, 1 mM PMSF, 5 μg/ml leupeptin, and 5 μg/ml aprotinin. Nuclear proteins were extracted using “Nuclear Extraction Kit” (Affimetrix). After the determination of protein concentration using DC protein assay (Bio-Rad, Hercules, Calif.), β-mercaptoethanol (-ME) was added to the whole-cell lysates to a 2% final concentration. The whole cell lysates or nuclear extracts were subjected to SDS-PAGE, transferred to nitrocellulose membranes (Bio-Rad, Hercules, Calif.) or polyvinylidene fluoride membranes (Millipore, Billerica, Mass.), and immunoblotted with indicated Abs. Silver staining was carried out using “SilverQuest Staining Kit®” (Invitrogen), according to manufacturer's protocol.
(§2) RNA was extracted using Trizol (Invitrogen) and quantified by a Nanodrop spectrophotometer (Labtech). Specifically, 5×10^6 cells were pelleted, washed with cold PBS, and resuspended in 1 mL Trizol. They were then incubated with 1-Bromo-3-chloropropane (Sigma), washed first with Isopropyl alcohol and then with 75% Ethanol, and resuspended in Nuclease Free-water (Invitrogen). After quantification, 2000 ng of RNA was used to synthesize cDNA via the Superscript II First strand synthesis Kit (Invitrogen), according to the manufacturer's instructions. To evaluate the expression levels of TP53RK, BCL2L11, MYC, Bim, E2F1, TP53, IKZF1, IKZF3, RRM1, p18CDKN2C, PSMB5, PSMB7, PSMA3 and GAPDH, quantitative real time PCR (QRT-PCR) was performed using SYBR GREEN PCR Master Mix (Applied Biosystem), after optimization of the primer conditions. cDNAs were diluted 1:100 or 1:1000 and amplified in a 20 μL reaction. Primers were used at 200 nM or 400 nM concentration. Thermal cycling conditions were: 10 minutes at 95° C., 40 cycles at 95° C. for 15 seconds, followed by 1 minute at 60° C. Real-time quantitative PCR was performed on ABI Prism 7300 Sequence Detection System (Applied Biosystems). Data were analyzed using the delta delta Ct method. GAPDH was used as an invariant control.

p53 [2] = assay: Immunoblotting of p53 and phosphorylated p53 in MM cells; format: cell-based
Method: as §1

RRM1, p18CDKN2C = assay: RRM1 and p18CDKN2C expression (RT-qPCR, Western blot); format: cell-based; details: H929 cells
Method: as §1, §2

TP53RK = target: T1, TP53RK (Homo sapiens, UniProt Q96S44); assay: In vitro TP53RK auto-phosphorylation assay; format: biochemical; details: dose-dependent; recombinant TP53RK and TPRKB
T1 construct: made in house; host or cells: HEK-293FT (transient calcium phosphate transfection; anti-DDK beads, Superdex 200)
Text: Full-length TP53RK and TPRKB sequences obtained from OriGene (Rockville, Md.) were cloned and inserted into pCMV6-AC-Myc-DDK. These constructs were transiently transfected into HEK-293FT cells to overexpress recombinant C-terminal Myc-DDK tagged TP53RK and TPRKB by calcium phosphate transfection. The recombinant proteins were immunoprecipitated with anti-DDK agarose beads and subjected to gel chromatography using Superdex 200 sizing column with an HPLC system. TP53RK and TPRKB proteins were co-eluted in the same fraction, whereas the TPRKB single protein was eluted in later fractions.
In vitro TP53RK auto-phosphorylation assay was performed as previously described^2. Briefly, purified recombinant TP53RK and TPRKB proteins (1.5-3 μg/reaction) were incubated with 25 uM [γ-32P]ATP (3000 Ci/mmol, 10 mCi/mL, PerkinElmer, Boston, Mass.) in HEPES buffer (25 mM HEPES (pH 7.5), 100 mM NaCl, 25 mM MgCl2. 2 mM DTT, phosphatase inhibitor mix (Roche) for 30 min at 30° C. The reaction was terminated by adding SDS sample buffer, and reaction mixtures were subjected to SDS-PAGE and autoradiography, as well as Coomassie blue staining.

c-Myc, IKZF1/3 = assay: c-Myc and IKZF1/3 expression (immunoblotting, qPCR); format: cell-based
Method: (§3) MM cells were harvested and lysed using RIPA-lysis buffer (Boston Bioproducts, Ashland, Mass.) containing 5 mM EDTA, 5 mM NaF, 2 mM Na3VO4, 1 mM PMSF, 5 μg/ml leupeptin, and 5 μg/ml aprotinin. Nuclear proteins were extracted using “Nuclear Extraction Kit” (Affimetrix). After the determination of protein concentration using DC protein assay (Bio-Rad, Hercules, Calif.), β-mercaptoethanol (-ME) was added to the whole-cell lysates to a 2% final concentration. […]
(§4) RNA was extracted using Trizol (Invitrogen) and quantified by a Nanodrop spectrophotometer (Labtech). […] After quantification, 2000 ng of RNA was used to synthesize cDNA via the Superscript II First strand synthesis Kit (Invitrogen), according to the manufacturer's instructions. To evaluate the expression levels of TP53RK, BCL2L11, MYC, Bim, E2F1, TP53, IKZF1, IKZF3, RRM1, p18CDKN2C, PSMB5, PSMB7, PSMA3 and GAPDH, quantitative real time PCR (QRT-PCR) was performed using SYBR GREEN PCR Master Mix (Applied Biosystem), after optimization of the primer conditions. cDNAs were diluted 1:100 or 1:1000 and amplified in a 20 μL reaction. […] Real-time quantitative PCR was performed on ABI Prism 7300 Sequence Detection System (Applied Biosystems). Data were analyzed using the delta delta Ct method. […]

proteasome = assay: Proteasome pathway (GSEA, qPCR) and chymotrypsin-like proteasome activity assay; format: cell-based; details: H929 cells
Method: as §2
Expression data for plasma cells from healthy donors, monoclonal gammopathy of undetermined significance (MGUS), and smoldering myeloma (SMM) were derived from GSE5900 dataset, while expression data from normal plasma cells and 65 MM patients were obtained from GSE4452 dataset, using expression profiling on Affymetrix GeneChip (t test, unpaired, equal variance). […] Data were then normalized and analyzed using D-chip software, seeking statistically significant differences among groups or in p53-target gene expression. Statistical significance was determined by Student t test. The minimal level of significance was P<0.05. […] Gene set enrichment analysis (GSEA) was performed as previously described (2) (GSEA v2.0 at http://www.broad.mit.edu/gsea) using gene set as permutation type, as well as 1,000 permutations and signal to noise as metrics for ranking genes.
Proteasome activity was measured by using Proteasome-Glo™ chymotrypsin-like cell-based assay (Promega, Madison, Wis.) according to manufacturer's protocol.

TP53RK, CRBN = assay: TP53RK and CRBN expression in MM cells (immunoblotting, qPCR); format: cell-based; details: for TP53RK level: MM.1S cells, 48 h
Method: as §1, §2
pLKO.1-based shRNA vectors were obtained from the RNAi Consortium (Broad Institute). […] After 24 h of infection, cells expressing shRNA were selected with puromycin dihydrochloride (Sigma-Aldrich) at 1-2 μg/ml for 48 h, and then examined for proliferation and/or subjected to immunoblotting analysis. For siRNA transfection, scrambled, TP53RK, CRBN, p53, c-Myc and RRM1 siRNAs were purchased from Thermo Scientific (Lafayette, Colo.). siRNA transfection was carried out by Amaxa electroporation system using “Cell Line Nucleofector® Kit V or C” solution (Lonza, Koln, Germany).

Chk1, ATM, ATR, Chk2 = assay: Immunoblotting of DNA damage kinase phosphorylation; format: cell-based; details: MM.1S cells, 48 h
Method: as §1

p53 [3] = assay: p53 DNA binding activity assay; format: cell-based; details: MM.1S and H929 cells, 48 h
Method: E2F1 DNA binding activity was assessed by electrophoretic mobility shift assay (EMSA) using “EMSA Gel Shift Kit®” from Affimetrix (Santa Clara, Calif.), and p53 DNA binding activity was performed using “p53 Transcription Factor Assay Kit®” from Cayman Chemical (Ann Arbor, Mich.). Experiments were carried out according to manufacturer's protocols.

hTERT = hTERT expression and telomerase activity (TeloTAGGG Telomerase PCR ELISA); format: cell-based; details: MM.1S cells and H929 cells
Method: as §1
Telomerase activity in MM.1S and H929 cells was assessed by “TeloTAGGG Telomerase PCR ELISA®” from Roche Applied Science (Mannheim, Germany).

E2F1 = E2F1 DNA binding activity (EMSA), protein and mRNA; format: cell-based; details: MM cells
Method: as §3, §4

MM cells = assay: Growth inhibition assay (MTT) / viable cell count (Trypan-blue); format: cell-based
Method: Cell growth was assessed by measuring 3-(4,5-dimethylthiazol-2-yl)-2,5-diphenyl […] bromide (MTT, Chemicon International, Temecula, Calif.) dye absorbance. Cells were pulsed with 10 μl of 5 mg/ml MTT to each well for the last 4 h of 48 h and/or 72 h cultures, followed by 100 μl isopropanol containing 0.04N HCl. Absorbance was measured at 570/630 nm using a spectrophotometer (Molecular Devices Corp., Sunnyvale Calif.).

[4] = MM.1S cells, Nutlin-3a 0.5 μM, 48 h

T1 sequence (Q96S44 whole entry, other chains not shown): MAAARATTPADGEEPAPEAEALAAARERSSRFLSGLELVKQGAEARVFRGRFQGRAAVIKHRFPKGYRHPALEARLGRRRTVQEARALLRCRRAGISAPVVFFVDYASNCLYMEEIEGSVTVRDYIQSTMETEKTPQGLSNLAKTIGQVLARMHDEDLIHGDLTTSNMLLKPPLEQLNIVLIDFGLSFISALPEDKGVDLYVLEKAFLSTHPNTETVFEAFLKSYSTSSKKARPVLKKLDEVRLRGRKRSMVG

CC1(N2C(=O)c3cccc(N)c3C2=O)CCC(=O)NC1=O (centres unmarked) [3′-methyl derivative]
activity in B cell growth inhibition relative to pomalidomide (B cell): similar
activity in co-stimulation of IL-2 production relative to pomalidomide (IL-2 production): similar

CCOc1ccc(C(Nc2ccccn2)c2ccc3ccc(C)nc3c2O)cc1C (centres unmarked) [HLM006474]
IMiDs-induced Bim upregulation ([1]; dose-dependent): blocked

COc1ccc(C2=N[C@@H](c3ccc(Cl)cc3)[C@@H](c3ccc(Cl)cc3)N2C(=O)N2CCNC(=O)C2)c(OC(C)C)c1 [Nut3, Nutlin-3a]
IMiD-triggered PARP cleavage in presence of Nut3 ([1]; MM.1S cells): enhanced
MDM2 and XIAP expression ([1]; MM.1S cells): upregulated
LC3-II upregulation triggered by Len and Pom, in presence of Nut3 [1, 4]: markedly downregulated
p-p53 and p53 levels (p53 [2]; [4]): upregulated

Nc1cccc2c1C(=O)N(C1CCC(=O)NC1=O)C2=O (centres unmarked) [Pom, pomalidomide]
RRM1 expression (RRM1, p18CDKN2C): downregulate
p18CDKN2C expression (RRM1, p18CDKN2C): upregulate
in vitro auto-phosphorylation of TP53RK (TP53RK): markedly downregulated
c-Myc transcription (real-time qPCR) (c-Myc, IKZF1/3; MM.1S cells): decreased transcription
chymotrypsin-like proteasome activity (proteasome): downregulation
proteasome pathway (GSEA) (proteasome): downregulation
TP53RK level (TP53RK, CRBN): induced downregulation
phosphorylation of ATM, ATR or Chk2 (Chk1, ATM, ATR, Chk2): not
phosphorylation of Chk1 (Chk1, ATM, ATR, Chk2): inhibited
p53 activity (p53 DNA binding) (p53 [3]): block
LC3-II level ([1]; MM.1S cells, 2.5 μM, 48 h): upregulation
hTERT expression (hTERT): significantly inhibited
telomerase (hTERT) activity (hTERT): significantly inhibited
E2F1 (E2F1): increases
drug-triggered growth inhibition in kinase-dead D163A TP53RK transfectants (MM cells; H929 cells, 48 h): abrogated
Pom-induced MM cell growth inhibition after TP53RK knockdown (MM cells; H929 cells, TP53RK siRNA then Pom 48 h, p<0.02): enhanced
sensitivity of MM cell lines to drug (MM cells; MM.1S and H929 cells with wt-p53 versus cell lines with mutant p53): more sensitive
drug-triggered cell death after CRBN knock-down (MM cells; OPM2 cells (mutant p53) and H929 cells (wt-p53)): only partially abrogates
anti-MM activity (MM cells; among the IMiDs Thal, Len, Pom): most potent anti-MM activity
potency of p-p53/p53 downregulation, Pom versus Len (p53 [2]; MM.1S cells): more potently
p53 phosphorylation at Ser20 and Ser37 (p53 [2]; MM.1S cells, 2.5 μM, 48 h): no change
phosphorylated (p-Ser15)-p53 and p53 levels (p53 [2]; MM.1S cells, 2.5 μM, 48 h): downregulated
downstream p-p53 level (p53 [2]; MM.1S cells, 48 h): markedly reduced
Nut3-induced upregulation of p-p53 and p53 (p53 [2]; MM.1S cells, Len or Pom 2.5 μM with Nutlin-3a 0.5 μM, 48 h): inhibited
p-p53/p53 downregulation (p53 [2]; nuclear extracts from MM.1S and H929 cell lines, patient MM cells): further confirmed

CCc1cc(C(N)=O)ccc1-n1nc(C(C)C)c2c(-n3cnc(-c4cnn(C)c4)c3)ccnc21 [TAS-116]
p-p53 modulation on Akt inhibition (p53 [2]; MM.1S cells): in neither case was p-p53 modulation observed

O=C1CCC(N2C(=O)c3ccccc3C2=O)C(=O)N1 (centres unmarked) [Thal, Thalidomide]
TP53RK level (TP53RK, CRBN): not
downstream p-p53 level (p53 [2]; MM.1S cells, 48 h): not

CC(C)C[C@H](NC(=O)[C@H](Cc1ccccc1)NC(=O)c1cnccn1)B(O)O [bortezomib]
cytotoxicity induced by bortezomib after TP53RK knockdown (MM cells; H929 cells, TP53RK siRNA then BTZ 3 nM 24 h, MTT): further enhanced

B1: TP53RK siRNA: SMARTpool of J-003108-09, -10, -11, -12 siRNAs against TP53RK (Table 4) (nucleic acid)
guide 1: GGUAGAAGAAUGUGUAUGA
guide 2: GCUUCCAACUGCUUAUAUA
guide 3: GCUGAACAUUGUGCUCAUA
guide 4: GUACCCAUCCCAACACUGA
modifications: SMARTpool mixture, further chemistry not given here
RRM1 expression (RRM1, p18CDKN2C): downregulation
p18CDKN2C expression (RRM1, p18CDKN2C): upregulation
IKZF1/3 expression after TP53RK knockdown (c-Myc, IKZF1/3; MM.1S cells and H929 cells): markedly downregulated
PSMB5 PSMB7 and PSMA3 mRNA (proteasome): downregulation
chymotrypsin-like proteasome activity (proteasome): significantly inhibited
poly-ubiquitinated proteins (proteasome): accumulation
proteasome pathway (GSEA) (proteasome): downregulated
CRBN expression after TP53RK knock-down (TP53RK, CRBN; H929 cells (also MM.1S)): did not modulate; also recorded: not altered
TP53RK mRNA levels (TP53RK, CRBN; MM.1S and H929 cells): markedly decreased
hTERT expression (hTERT): downregulated
MM cell growth, viable cells by Trypan-blue (MM cells; H929 cells, siRNA knockdown): triggered MM cell growth inhibition
cell growth after knock-down (MM cells; MM.1S and H929 cells): growth inhibition

B2: CRBN siRNA: SMARTpool of J-021086-9 to -12 siRNAs against CRBN (nucleic acid)
guide 1: CAAUUAGAAUCCCUCAAUA
guide 2: GUAUAAGGCUUGCAACUUG
guide 3: GACAUUACCUCUUCAGCUU
guide 4: CGACUUCGCUGUGAAUUAG
modifications: SMARTpool mixture, further chemistry not given here
notes: SMARTpool of J-021086-9 to -12 siRNAs against CRBN
chymotrypsin-like proteasome activity (proteasome): not
TP53RK expression after CRBN knockdown (TP53RK, CRBN; H929 cells): did not change

Source: US10302644B2, “Compositions and methods for treating multiple myeloma” (Dana-Farber Cancer Institute, Inc., priority 2014, dated 2019)
